The text below walks through data of ChEMBL document CHEMBL5463728, “Data for DCP probe BAY-6096” (2023).

For experiment [1], the target named is Beta-3 adrenergic receptor (Homo sapiens, UniProt P13945). Kind of experiment: Adrenoceptor reporter cell assay (ADRB3). Type of experiment: functional.
The target of experiment [2] is Histamine H3 receptor (Homo sapiens) (UniProt Q9Y5N1). To be noted: Compound concentration 10.0 uM.
The target of experiment [3] is Sodium-dependent serotonin transporter (Homo sapiens) (UniProt P31645). The note with it: Compound concentration 10.0 uM.
The target of experiment [4] is T1, Alpha-2B adrenergic receptor (Homo sapiens, UniProt P18089).
T1 sequence (P18089 whole entry): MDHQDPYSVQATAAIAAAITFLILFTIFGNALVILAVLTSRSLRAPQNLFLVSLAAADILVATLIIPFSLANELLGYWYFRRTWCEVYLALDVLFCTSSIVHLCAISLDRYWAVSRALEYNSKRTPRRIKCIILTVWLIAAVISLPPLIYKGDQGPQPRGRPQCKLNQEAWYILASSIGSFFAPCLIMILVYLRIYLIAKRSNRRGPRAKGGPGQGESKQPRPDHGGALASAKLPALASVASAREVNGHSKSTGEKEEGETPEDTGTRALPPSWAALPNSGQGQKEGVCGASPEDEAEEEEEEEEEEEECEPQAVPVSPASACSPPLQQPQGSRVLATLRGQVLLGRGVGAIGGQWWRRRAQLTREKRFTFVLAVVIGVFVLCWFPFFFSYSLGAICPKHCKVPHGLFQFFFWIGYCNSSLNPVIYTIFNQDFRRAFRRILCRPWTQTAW
Kind of experiment: GPCRScan assay: inhibition of Alpha2B. Further details: radioligand conc. used [nm] 1.5 – 2.0, parental cells HEKT.

Some results are limits rather than exact numbers.

Sequence of Beta-3 adrenergic receptor (P13945 whole entry): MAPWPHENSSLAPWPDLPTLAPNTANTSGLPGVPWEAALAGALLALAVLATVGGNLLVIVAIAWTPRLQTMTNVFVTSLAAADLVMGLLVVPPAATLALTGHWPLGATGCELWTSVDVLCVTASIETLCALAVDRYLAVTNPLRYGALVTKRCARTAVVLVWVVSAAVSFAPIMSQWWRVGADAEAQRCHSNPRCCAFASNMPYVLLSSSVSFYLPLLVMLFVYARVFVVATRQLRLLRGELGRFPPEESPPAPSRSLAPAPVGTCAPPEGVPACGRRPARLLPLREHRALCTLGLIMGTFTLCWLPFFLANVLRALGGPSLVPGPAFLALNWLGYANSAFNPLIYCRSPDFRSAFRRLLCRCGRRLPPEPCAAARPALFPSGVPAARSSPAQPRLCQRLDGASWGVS
Sequence of Histamine H3 receptor (Homo sapiens) (Q9Y5N1 whole entry): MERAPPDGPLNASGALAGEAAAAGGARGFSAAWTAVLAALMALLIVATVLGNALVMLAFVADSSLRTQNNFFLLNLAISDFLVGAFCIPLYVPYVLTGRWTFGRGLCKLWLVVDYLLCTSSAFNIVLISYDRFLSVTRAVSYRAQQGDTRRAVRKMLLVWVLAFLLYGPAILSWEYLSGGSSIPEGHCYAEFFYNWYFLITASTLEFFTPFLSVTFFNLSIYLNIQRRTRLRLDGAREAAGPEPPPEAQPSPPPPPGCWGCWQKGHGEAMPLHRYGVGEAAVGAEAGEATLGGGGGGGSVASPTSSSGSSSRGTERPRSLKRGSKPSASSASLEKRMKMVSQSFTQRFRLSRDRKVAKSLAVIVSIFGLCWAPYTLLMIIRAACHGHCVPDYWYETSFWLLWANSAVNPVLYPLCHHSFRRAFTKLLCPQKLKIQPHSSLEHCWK
Sequence of Sodium-dependent serotonin transporter (Homo sapiens) (P31645 whole entry, looked up): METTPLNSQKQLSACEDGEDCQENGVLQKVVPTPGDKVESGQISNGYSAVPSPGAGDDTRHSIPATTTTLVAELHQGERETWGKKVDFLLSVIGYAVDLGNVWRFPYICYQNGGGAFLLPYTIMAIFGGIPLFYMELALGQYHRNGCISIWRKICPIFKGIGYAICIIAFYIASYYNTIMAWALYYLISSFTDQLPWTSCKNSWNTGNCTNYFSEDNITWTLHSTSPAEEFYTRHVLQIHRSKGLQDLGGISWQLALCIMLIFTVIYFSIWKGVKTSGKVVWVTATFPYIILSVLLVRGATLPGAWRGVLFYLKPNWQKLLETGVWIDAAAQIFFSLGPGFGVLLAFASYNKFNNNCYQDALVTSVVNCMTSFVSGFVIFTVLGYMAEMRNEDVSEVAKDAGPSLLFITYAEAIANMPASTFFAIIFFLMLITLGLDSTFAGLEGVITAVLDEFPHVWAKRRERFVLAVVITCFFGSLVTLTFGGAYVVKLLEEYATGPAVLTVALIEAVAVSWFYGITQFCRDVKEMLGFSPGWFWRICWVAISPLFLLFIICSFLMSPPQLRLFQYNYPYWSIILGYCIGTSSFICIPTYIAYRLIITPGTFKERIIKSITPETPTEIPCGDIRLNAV

For `CNc1cc[n+](CCNC(=O)c2ccn3c(-c4c(C)noc4C)cnc3c2)cc1`, the IC50 – broadly, the concentration needed to halve the response being measured – in experiment [1] was > 10000 nM (not active). Moreover, the inhibition – broadly, how much of the control response was suppressed – in experiment [2] is 1.6%; in experiment [3], 0.4%.
`Cc1noc(C)c1-c1cnc2cc(C(=O)NCCC[n+]3ccc(N(C)C)cc3)ccn12`: the Ki in experiment [4] (read-out: Ki) is 2760 nM; in experiment [4] (read-out: pKi (converted)), 2510 nM.
